Patent EP0510719A1, “Benzimidazole derivatives substituted with a radical group and their use for inhibiting gastric acid secretion” (priority 1986, dated 1988)
Counter-ions that a name gives are not always drawn. Like-named read-outs stand apart in the source and are kept apart here. Blank lines part the entries; values can stand above or below the compound they belong to.

Key:
[1] = tested on: gastric acid secretion; assay: Inhibiting effect in vivo on gastric acid secretion in conscious dog (histamine-stimulated, chronic gastric fistula dog); conditions: inhibition during the 2nd hour after dose
Protocol: Chronic gastric fistula dog were used. These dogs have been surgically provided with a gastric cannula in the stomach and a duodenal fistula, used for direct intraduodenal administration of test compounds. Following a 4 weeks' recovery period after surgery, tests were performed once a week on each dog. Food and water were withdrawn 18 hours before each test.
Gastric acid secretion was induced by a continuous 4 h infusion of histamine at individual doses (400-600 nmol/kg^.h,iv) resulting in approximately 90% of maximal secretion of gastric acid. After 1 h of histamine stimulation, test compounds or vehicle were administered, either iv or im (vehicle = 0.5% saline) or id (vehicle = 0.5% Methocel®, 90 HG 15000, Dow Chem Corp.) via a catheter through the duodenal fistula. The gastric juice was collected by free flow from the gastric cannula in consecutive 30 min. samples during the duration of the histamine infusion. The samples were titrated to pH 7.0 with 0.1 M or 1.0 M NaOH using an automatic titrator and the acid output was calculated. The acid output during the periods after administration of test compound or vehicle was expressed as the fraction of the output during the period preceding these administrations, and the per cent inhibition of acid secretion was calculated by comparing in each dog the fractional responses induced by the test compound to the corresponding vehicle-induced fractional responses.
The test results given in Table 5 below represent inhibition during the 2nd hour after dose.

[2] = Solubility in water; format: physicochemical
Protocol: By comparison, the sodium salt of omeprazole, 5-methoxy-2-[[(4-methoxy 3-5-dimethyl-pyridinyl)methyl] sulfinyl]-1-H-benzimidazole, has a solubility of 0.4 mg per ml at pH 9, a pH considered suitable for i.v. administration.

[3] = Chemical stability in aqueous buffer solution at different pH, followed kinetically; format: physicochemical
[4] = pH 5, 37°C, aqueous buffer solution, low concentration, read-out: t 1/2 (hours) pH 5 (converted)
[5] = pH 7.3, 37°C, aqueous buffer solution, low concentration, read-out: t 1/2 (hours) pH 7.3 (converted)

- solubility ([2]; water): > 60 mg/mL
- degraded at 600 h ([3]; aqueous buffer, after 25 days at 22° at the concentration 50 mg/ml, footnote to the pH 9.5 value, read-out: decomposition): 12%
- half-life [3, 5]: 74 h
- half-life ([3]; pH 9.5, 37°C, aqueous buffer solution, low concentration, read-out: t 1/2 (hours) pH 9.5): > 600 h
SMILES: COc1ccc2nc([S+]([O-])Cc3ncc(C)c(OC)c3C)n(COP(=O)(O)O)c2c1 (stereo not drawn) [Example 29]
- Inhibition of acid secretion (%) ([1]; 0,3 μmol/kg iv): 45 (1) %
- Inhibition of acid secretion (%) ([1]; 0,5 μmol/kg iv): 60 (1) %
- Inhibition of acid secretion (%) ([1]; 1 μmol/kg im): 90 (1) %
- Inhibition of acid secretion (%) ([1]; 1 μmol/kg iv): 80-85 (2) %

- half-life [3, 5]: 51 h
SMILES: COc1ccc2c(c1)nc([S+]([O-])Cc1ncc(C)c(OC)c1C)n2COP(=O)(O)O (stereo not drawn) [Example 32, phosphoric acid, [5-methoxy-[2[[(4-methoxy-3,5-dimethyl-2-pyridinyl)methyl]sulfinyl]-1-H-benzimidazole-1-yl]]methyl ester, disodium salt]
- Inhibition of acid secretion (%) ([1]; 0,3 μmol/kg iv): 55 (1) %
- Inhibition of acid secretion (%) ([1]; 0,6 μmol/kg iv): 53 (1) %

- half-life ([3]; pH 3, 37°C, aqueous buffer solution, low concentration, read-out: t 1/2 (hours) pH 3 (converted)): 80 h
- half-life [3, 4]: 100 h
- half-life [3, 5]: 40 h
SMILES: COc1ccc2c(c1)nc([S+]([O-])Cc1ncc(C)c(OC)c1C)n2COC(=O)CCC(=O)N1CCN(C)CC1 (stereo not drawn) [Example 34]

More lines, now with the values behind:

SMILES: COc1c(C)cnc(C[S+]([O-])c2nc3ccccc3n2COC(=O)CCC(=O)N2CCN(C)CC2)c1C (stereo not drawn) [Example 3]
- Inhibition of acid secretion (%) ([1]; 0,3 μmol/kg iv): 72 (1) %
- Inhibition of acid secretion (%) ([1]; 1 μmol/kg iv): 98 (1) %
- Inhibition of acid secretion (%) ([1]; 2 μmol/kg id): 100 (1) %
- solubility ([2]; water): > 60 mg/mL
- half-life [3, 4]: 112 h
- half-life [3, 5]: 32 h

SMILES: CCOP(=O)(O)OCn1c([S+]([O-])Cc2ncc(C)c(OC)c2C)nc2ccc(OC)cc21 (stereo not drawn) [Example 33]
- Inhibition of acid secretion (%) ([1]; 1 μmol/kg id): 97 (1) %
- Inhibition of acid secretion (%) ([1]; 4 μmol/kg id): 98 (1) %
- t 1/2 (hours) pH 5 ([3]; pH 5, 37°C, aqueous buffer solution, low concentration): No decomp. after 30 h

SMILES: COc1ccc2[nH]c([S+]([O-])Cc3ncc(C)c(OC)c3C)nc2c1 (stereo not drawn) [Omeprazole-Na^⊕]
- half-life ([3]; pH 2, 37°C, aqueous buffer solution, low concentration, read-out: t 1/2 (hours) pH 2 (converted)): 0.07 h
- half-life [3, 4]: 0.04 h
- half-life [3, 5]: 20 h

SMILES: COc1ccc2[nH]c([S+]([O-])Cc3ncc(C)c(OC)c3C)nc2c1 (stereo not drawn) [omeprazole, 5-methoxy-2-[[(4-methoxy 3-5-dimethyl-pyridinyl)methyl]sulfinyl]-1-H-benzimidazole, reference compound]
- solubility ([2]; at pH 9, a pH considered suitable for i.v. administration, sodium salt, read-out: solubility): 0.4 mg/mL
